From patent publication EP0934745B1, “Use of androsterone derivatives for inhibiting DNA binding of ap-1 and airway smooth muscle proliferation” (CHARLOTTE-MECKLENBURG HOSPITAL doing business as Carolinas …, priority 1998, dated 1999)

How the values were obtained:
[1] = tested on: p21^ras; assay: Immunoblot of p21ras in membranes of cultured airway smooth muscle cells; assay type: cell-based, rat; conditions: 10% FBS + 10 µM, 24 hours (Figure 6B)
Method: To determine if 16α-bromoepiandrosterone reduced cellular proliferation by interfering with mevalonic acid synthesis, cells were stimulated with FBS and grown in the presence or absence of 16α-BrEA, with or without addition of 6 mM DL-mevalonic acid lactone to growth medium. After 36 hours growth was measured by MTT reduction. To evaluate whether isoprenylation and membrane localization of Ras was impaired, confluent cells on 75-cm^2 Petri dishes were growth arrested for 24 hours in 0.5% FBS and DMEM with and without 16α-BrEA or DMSO vehicle. Some dishes were then stimulated 30 minutes with 10% FBS in DMEM. Cells were lysed, membranes were isolated and immunoblotting was performed as described below to determine if treatment with DHEA and 16α-BrEA depleted p21^ras.
To determine if DHEA or its analogs induced programmed cell death, confluent cultures in 6 well plastic plates were treated with 50 or 250 µM DHEA, 10 or 50 µM 16α-BrEA, or vehicle (25 µl DMSO). After 2 hours cells were washed twice with DPBS and scraped on ice into 1.5 ml microfuge tubes and centrifuged 250 g for 5 minutes at 4°C. […] The linear increase in absorbance at 340 nm was monitored at 25°C for 300 seconds. Activity was expressed as units/mg protein, where 1.0 unit will oxidase 1.0 µmole of G6P to 6-phospho-D-gluconate per min in the presence of NADP. Protein was measured using the BCA protein assay (Rockford, IL). […]

[2] = tested on: guinea pig main bronchi; assay: Bronchial smooth muscle contraction in vitro (isolated bronchial rings, isometric tension)
Method: Effect on bronchial smooth muscle contraction in vitro. To study the effect of DHEA on bronchial smooth muscle in vitro, male Hartley guinea-pigs (Charles River Laboratories, Inc., Wilmington, MA) were anaesthetized with sodium pentobarbital (pentobarbital sodium (Abbott Laboratories) (200 mg/kg intraperitoneally). Then trachea and lungs were quickly removed and immersed in oxygenated Krebs-Henseleit solution (K-H) containing (mM) : 115 NaCl, 25 NaHCO3, 1.38 NaH2PO4, 2.5 KCl, 2.46 MgSO4, 1.9 CaCl2, and 5.56 dextrose, aerated with 95% O2 and 5% CO2.
The main bronchi were dissected free of loose connective tissue, under a stereo-microscope (Olympus SZH10), and bronchial rings were obtained and mounted in double jacketed organ baths filled with K-H at 37°C and continuously aerated with a 95% O2 and 5% CO2 gas mixture, which produced a pH of 7.4. The bronchial rings were connected to force displacement transducers (Grass FTO3) for continuous recording of isometric tension on paper polygraph (Gould RS3800) and allowed to equilibrate for 90 minutes. After the equilibration period 1mM acetylcholine was administered and the response monitored.
Bronchial rings were partially contracted with 3·10^-2 M KCl or 10^-5 M acetylcholine (ACh) , then the effect of DHEA was studies by increasing cumulatively its concentration at log intervals from 10^-3 to 10^-4 M and measuring the changes produced in active tension.
A concentration of 3 x 10^-2 M KCl was chosen on the basis of preliminary experiments, in which from concentration-response curves to KCl (10^-2 - 10^-1 M) it was determined that the concentration of KCl eliciting 50% of the maximum response (KCl-EC50) in the experimental set up. […] Similarly, 10^-5 M acetylcholine (ACh) was chosen as the concentration of ACh eliciting 50% of the maximum response.
Since DHEA was dissolved in dimethyl sulfoxide (DMSO), four additional rings were contracted with 3 x 10^-2 M KCl (n=5) or 10^-5 M ACh (n=5) to determine whether this vehicle produced any alteration of the active force. […] The maximum final concentration of DMSO in the organ bath was 0.15%.
Three of the strips used to study DHEA were rinsed with fresh K-H at the end of the experiment, treated with 1 mM acetylcholine, and the response monitored.
In a second set of experiments either a single dose of 10^-5 M ACh was administered or a concentration-response curve to ACh was performed in the presence or absence of 10^-4 M DHEA (administered 15 minutes before ACh). The single dose of ACh was used to measure the rate of tension development, while the concentration-response study was used to evaluate whether DHEA affected sensitivity to ACh.

Compound	p21^ras in membranes of cultured airway smooth muscle cells [1]	rate of tension development in response to 10^-5 ACh ([2]; 10^-4 M DHEA administered 15 minutes before ACh, 2.27±0.82 without DHEA)	relaxation of the ACh-induced contraction ([2]; 10^-4 M DHEA, bronchi partially contracted with 10^-5 M ACh, n=5)	EC50 ([2]; Cavia porcellus, read-out: concentration of DHEA which produced 50% relaxation of the KCl-induced contraction)	relaxation of the KCl-induced contraction ([2]; maximum concentration of DHEA, bronchi partially contracted with 3 x 10^-2 M KCl, after subtraction of the reduction of force due to time-vehicle, n=6)	smooth muscle functionality (response to 1 mM acetylcholine after rinsing) ([2]; three strips rinsed with fresh K-H at the end of the DHEA experiment)
C[C@]12CC[C@H](O)C[C@@H]1CC[C@@H]1[C@@H]2CC[C@]2(C)C(=O)[C@H](Br)C[C@@H]12 [16α-BrEA, 16α-bromoepiandrosterone]	does not deplete p21^ras	–	–	–	–	–
C[C@]12CC[C@H](O)CC1=CC[C@@H]1[C@@H]2CC[C@]2(C)C(=O)CC[C@@H]12 [DHEA, dehydroepiandrosterone]	–	1.85±0.85	37.98±4.76%	21.6 µM	76.28±6.96%	not altered
